pIC50: −log10 of the molar value.
How the values were obtained:
[1] = target: T1, CDK2/CycE (Homo sapiens, UniProt P24941); assay: CDK2/CycE kinase assay (TR-FRET, 10 μM ATP); assay type: biochemical; conditions: Method 2 (2a)
T1 construct: GST; purchased ProQinase GmbH (Freiburg, Germany); host or cells: insect cells (Sf9)
Description: 2a. CDK2/CycE Kinase Assay:
CDK2/CycE-inhibitory activity of compounds of the present invention was quantified employing the CDK2/CycE TR-FRET assay as described in the following paragraphs:
(§1) Recombinant fusion proteins of GST and human CDK2 and of GST and human CycE, expressed in insect cells (Sf9) and purified by Glutathion-Sepharose affinity chromatography, were purchased from ProQinase GmbH (Freiburg, Germany). As substrate for the kinase reaction biotinylated peptide biotin-Ttds-[…] (C-terminus in amid form) was used which can be purchased e.g. form the company JERINI Peptide Technologies (Berlin, Germany).
(§2) For the assay 50 nl of a 100 fold concentrated solution of the test compound in DMSO was pipetted into a black low volume 384 well microtiter plate (Greiner Bio-One, Frickenhausen, Germany), 2 μl of a solution of CDK2/CycE in aqueous assay buffer [50 mM Tris/HCl pH 8.0, 10 mM MgCl2, 1.0 mM dithiothreitol, 0.1 mM sodium ortho-vanadate, 0.01% (v/v) Nonidet-P40 (Sigma)] were added and the mixture was incubated for 15 min at 22° C. to allow pre-binding of the test compounds to the enzyme before the start of the kinase reaction. Then the kinase reaction was started by the addition of 3 μl of a solution of adenosine-tri-phosphate (ATP, 16.7 μM=>final conc. in the 5 μl assay volume is 10 μM) and substrate (1.25 μM=>final conc. in the 5 μl assay volume is 0.75 μM) in assay buffer and the resulting mixture was incubated for a reaction time of 25 min at 22° C. The concentration of CDK2/CycE was adjusted depending of the activity of the enzyme lot and was chosen appropriate to have the assay in the linear range, typical concentrations were in the range of 130 ng/mL The reaction was stopped by the addition of 5 μl of a solution of TR-FRET detection reagents (0.2 μM streptavidine-XL665 [Cisbio Bioassays, Codolet, France] and 1 nM anti-RB(pSer807/pSer811)-antibody from BD Pharmingen [#558389] and 1.2 nM LANCE EU-W1024 labeled anti-mouse IgG antibody [Perkin-Elmer, product no. AD0077]) in an aqueous EDTA-solution (100 mM EDTA, 0.2% (w/v) bovine serum albumin in 100 mM HEPES/NaOH pH 7.0).
(§3) The resulting mixture was incubated 1 h at 22° C. to allow the formation of complex between the phosphorylated biotinylated peptide and the detection reagents. Subsequently the amount of phosphorylated substrate was evaluated by measurement of the resonance energy transfer from the Eu-chelate to the streptavidine-XL. Therefore, the fluorescence emissions at 620 nm and 665 nm after excitation at 350 nm was measured in a TR-FRET reader, e.g. a Rubystar (BMG Labtechnologies, Offenburg, Germany) or a Viewlux (Perkin-Elmer). The ratio of the emissions at 665 nm and at 622 nm was taken as the measure for the amount of phosphorylated substrate.

[2] = target: T1, CDK2/CycE; assay: CDK2/CycE high ATP kinase assay (TR-FRET, 2 mM ATP); assay type: biochemical; conditions: Method 2b
Description: 2b. CDK2/CycE High ATP Kinase Assay:
CDK2/CycE-inhibitory activity of compounds of the present invention at 2 mM adenosine-tri-phosphate (ATP) was quantified employing the CDK2/CycE TR-FRET (TR-FRET=Time Resolved Fluorescence Energy Transfer) assay as described in the following paragraphs.
as §1, with “were purchase” for “were purchased”, “JERINI peptide technologies” for “JERINI Peptide Technologies”
as §2, with “ATP (3.33 mM=>final” for “of adenosine-tri-phosphate (ATP, 16.7 μM=>final”, “2 mM)” for “10 μM)”, “15 ng/ml.” for “130 ng/mL”, “AD0077, as an alternative a Terbium-cryptate-labeled anti-mouse IgG antibody from Cisbio Bioassays can be used])” for “AD0077])”
as §3, with “350 nm were measured in” for “350 nm was measured in”

pIC50 [1] | pIC50 [2] | SMILES
8.00 | 6.91 | CCOC(=O)N=S(C)(=O)Cc1cc(Nc2cc(-c3ccc(F)cc3OC)c(F)cn2)nc(OC)c1 (racemic) [Example 15, (rac)-ethyl{[(2-{[5-fluoro-4-(4-fluoro-2-methoxyphenyl)pyridin-2-yl]amino}-6-methoxypyridin-4-yl)methyl](methyl)oxido-λ^6-sulfanylidene}carbamate]
7.31 | 6.05 | COc1cc(F)ccc1-c1cc(Nc2cc(CS(C)(=N)=O)cc(F)n2)ncc1F (racemic) [Example 17, (rac)-5-Fluoro-4-(4-fluoro-2-methoxyphenyl)-N-{6-fluoro-4-[(S-methylsulfonimidoyl)methyl]pyridin-2-yl}pyridin-2-amine]
7.41 | – | COc1cc(F)ccc1-c1cc(Nc2cc(CS(C)(=O)=NC(=O)C(F)(F)F)cc(F)n2)ncc1F (racemic) [Example 18, (rac)-2,2,2-Trifluoro-N-{[(2-fluoro-6-{[5-fluoro-4-(4-fluoro-2-methoxyphenyl)pyridin-2-yl]amino}pyridin-4-yl)methyl](methyl)oxido-λ^6-sulfanylidene}acetamide]
7.96 | 6.88 | COc1cc(F)ccc1-c1cc(Nc2cc(CS(C)(=N)=O)cc(C(F)(F)F)n2)ncc1F (racemic) [Example 21, (rac)-5-Fluoro-4-(4-fluoro-2-methoxyphenyl)-N-{4-[(S-methylsulfonimidoyl)methyl]-6-(trifluoromethyl)pyridin-2-yl}pyridin-2-amine]
6.96 | 5.92 | CCOc1cc(F)ccc1-c1cc(Nc2cc(CS(C)(=N)=O)cc(F)n2)ncc1F (racemic) [Example 26, (rac)-4-(2-Ethoxy-4-fluorophenyl)-5-fluoro-N-{6-fluoro-4-[(S-methylsulfonimidoyl)methyl]pyridin-2-yl}pyridin-2-amine]
5.92 | ≤ 4.70 | CCOc1cc(F)ccc1-c1cc(Nc2cc(CS(C)(=O)=NC(=O)C(F)(F)F)cc(F)n2)ncc1F (racemic) [Example 27, (rac)-N-{[(2-{[4-(2-Ethoxy-4-fluoro-phenyl)-5-fluoropyridin-2-yl]amino}-6-fluoropyridin-4-yl)methyl]-(methyl)oxido-λ^6-sulfanylidene}-2,2,2-trifluoroacetamide]

Further lines, the compound ahead of its results:

SMILES | pIC50 [1] | pIC50 [2]
COc1cc(F)ccc1-c1cc(Nc2cc(CS(C)(=N)=O)ccn2)ncc1F (racemic) [Example 1, (rac)-5-Fluoro-4-(4-fluoro-2-methoxyphenyl)-N-{4-[(S-methylsulfonimidoyl)methyl]pyridin-2-yl}pyridin-2-amine] | 6.39 | 5.23
COc1cc(F)ccc1-c1cc(Nc2cc(CS(C)(=N)=O)cc(C)n2)ncc1F (racemic) [Example 4, (rac)-5-Fluoro-4-(4-fluoro-2-methoxyphenyl)-N-{6-methyl-4-[(S-methylsulfonimidoyl)methyl]pyridin-2-yl}pyridin-2-amine] | 6.92 | 6.00
COc1cc(F)ccc1-c1cc(Nc2cc(CS(C)(=N)=O)c(Br)c(C)n2)ncc1F (racemic) [Example 5, (rac)-5-Bromo-N-[5-fluoro-4-(4-fluoro-2-methoxyphenyl)pyridin-2-yl]-6-methyl-4-[(S-methylsulfonimidoyl)methyl]pyridin-2-amine] | 6.85 | 5.75
COc1cc(CS(C)(=N)=O)cc(Nc2cc(-c3ccc(F)cc3OC)c(F)cn2)n1 (racemic) [Example 6, (rac)-5-Fluoro-4-(4-fluoro-2-methoxyphenyl)-N-{6-methoxy-4-[(S-methylsulfonimidoyl)methyl]pyridin-2-yl}pyridin-2-amine] | 8.40 | 7.08
COc1cc(F)ccc1-c1cc(Nc2cc(CS(C)(=N)=O)cc(Cl)n2)ncc1F (racemic) [Example 7, (rac)-N-{6-Chloro-4-[(S-methylsulfonimidoyl)methyl]pyridin-2-yl}-5-fluoro-4-(4-fluoro-2-methoxyphenyl)pyridin-2-amine] | 7.36 | 6.20
COc1cc(F)ccc1-c1cc(Nc2cc(CS(=N)(=O)CCO)ccn2)ncc1F (racemic) [Example 8, (rac)-2-{S-[(2-{[5-Fluoro-4-(4-fluoro-2-methoxyphenyl)pyridin-2-yl]amino}pyridin-4-yl)methyl]sulfonimidoyl}ethanol] | 6.37 | 5.38
COc1cc(F)ccc1-c1cc(Nc2cc(CS(=N)(=O)CCN)ccn2)ncc1F (racemic) [Example 9, (rac)-N-(4-{[S-(2-Aminoethyl)sulfonimidoyl]methyl}pyridin-2-yl)-5-fluoro-4-(4-fluoro-2-methoxyphenyl)pyridin-2-amine] | 6.62 | 5.37
CCOC(=O)N=S(C)(=O)Cc1ccnc(Nc2cc(-c3ccc(F)cc3OC)c(F)cn2)c1 (racemic) [Example 11, (rac)-Ethyl{[(2-{[5-fluoro-4-(4-fluoro-2-methoxyphenyl)pyridin-2-yl]amino}pyridin-4-yl)methyl](methyl)oxido-λ^6-sulfanylidene}carbamate] | 6.77 | 5.53
CCNC(=O)N=S(C)(=O)Cc1ccnc(Nc2cc(-c3ccc(F)cc3OC)c(F)cn2)c1 (racemic) [Example 12, (rac)-1-Ethyl-3-{[(2-{[5-fluoro-4-(4-fluoro-2-methoxyphenyl)pyridin-2-yl]amino}pyridin-4-yl)methyl](methyl)oxido-λ^6-sulfanylidene}urea] | 6.85 | 5.51
COc1cc(F)ccc1-c1cc(Nc2cc(CS(C)(=O)=NC(C)=O)ccn2)ncc1F (racemic) [Example 13, (rac)-N-{[(2-{[5-Fluoro-4-(4-fluoro-2-methoxyphenyl)pyridin-2-yl]amino}pyridin-4-yl)methyl](methyl)oxido-λ^6-sulfanylidene}acetamide] | 6.89 | 5.43
CCS(=N)(=O)Cc1ccnc(Nc2cc(-c3ccc(F)cc3OC)c(F)cn2)c1 (racemic) [Example 30, (rac)-N-{4-[(S-Ethylsulfonimidoyl)-methyl]pyridin-2-yl}-5-fluoro-4-(4-fluoro-2-methoxyphenyl)pyridin-2-amine] | 6.68 | 6.52
